Laboratory results reported in patent publication US20240238288A1, “ALDOSE REDUCTASE INHIBITORS FOR TREATING SORBITOL DEHYDROGENASE DEFICIENCY” (APPLIED THERAPEUTICS, INC., priority 2020, published 2024).

Test system: fibroblasts from patients with SDH deficiency (biallelic c.757delG)
Assay: Sorbitol levels in human fibroblasts from patients with sorbitol dehydrogenase deficiency treated with aldose reductase inhibitors
Type: cell-based
Details: for reduction of sorbitol levels in comparison to vehicle control: 72 hours, SDH-deficient patient fibroblasts, sorbitol by UPLC-MS/MS normalized to protein; for sorbitol levels in SORD fibroblasts (FIG. 1 legend): FIG. 1 histogram, SORD patient fibroblasts
Description: Fibroblasts were obtained from skin biopsy of normal human volunteers or patients with confirmed sorbitol dehydrogenase deficiency (biallelic c.757delG). Fibroblasts were cultured in triplicate in Dulbecco's modified Eagle's medium (ThermoFisher) supplemented with 10% fetal bovine serum, penicillin and streptomycin (Gibco). Cells were grown in 5% CO2 at 37° C. in a humidified incubator. Asynchronous cell cultures were grown to approximately 80% confluency, and then treated with vehicle, Compound A (100 uM) or Compound B (10 uM) for 72 hours. Th media containing vehicle, Compound A or Compound B, was changed every 24 hours.
Sorbitol and protein were determinated from lysates of human fibroblasts. For protein measurements, fibroblasts were collected and lysed in RIPA buffer (ThermoFisher) containing protease inhibitors (Roche) and sonicated for 5 minutes using a Bioruptor sonication device (Diagenode). Protein quantification was conducted using a Coomassie assay. For sorbitol determination, a UPLC-tandem mass spectrometry (MS/MS) (Waters Acquity UPLC & TQD mass spectrometer) was used, fibroblasts were collected and lysed in RIPA buffer (ThermoFisher) and sonicated for 5 minutes using a Bioruptor sonication device (Diagenode). Cell lysates were centrifuged 13,000 g for 10 minutes at 4° C., and the supernatants were collected for protein quantification and sorbitol measurement. For Sorbitol measurements, the lysate underwent protein precipitation with acetonitrile (1:5), tenfold dilution with acetonitrile/water (50:50) and cleanup on Oasis HLB cartridges (10 mg/ml), before injection (3 ul) into the UPLC system. The UPLC conditions were as follows: column: BHE amid 1.7 um (2.1×100 mm) at 88° C.; eluent A: acetonitrile 90%/water 5%/isopropanol 5%; eluent B: acetonitrile 80%/water 20%; gradient elution, 0 minutes 100% A to 3.6 minutes 100% B; flow rate of 0.45 ml/minute. The retention time of sorbitol was 2.7 minutes. The linearity of the method was assessed between 0.25 and 50 mgl^−1. The MS/MS conditions were as follows: interface, electrospray interface in negative ion mode; multiple reaction monitory acquisition, m z 180.0-88.9 (CV 24, CE 15). The detection limit (signal-to-noise ration=3) was 0.03 mgl^−1. Sorbitol levels were normalized to protein concentration.

With O=C(O)Cc1nn(Cc2nc3cc(C(F)(F)F)ccc3s2)c(=O)c2nccnc12 [Compound A] the “reduction of sorbitol levels in comparison to vehicle control” value (100 uM) was 78% and the “sorbitol levels in SORD fibroblasts (FIG. 1 legend)” value was “reduces sorbitol levels”.
With O=C(O)Cc1nn(Cc2nc3cc(C(F)(F)F)ccc3s2)c(=O)c2cscc12 [Compound B] the “reduction of sorbitol levels in comparison to vehicle control” value (10 uM) was 75% and the “sorbitol levels in SORD fibroblasts (FIG. 1 legend)” value was “reduces sorbitol levels”.
